Two compounds from patent publication US20020013478A1, “Calanolide analogues and methods of their use” (Sarawak Medichem Pharmaceuticals,Inc., priority 1994, published 2002) can be followed below.

Converted amounts (≈) assume the structure as drawn. Read-outs that look alike come from different tables or passages of the source.

The test system of one series is measles. The series is described as follows: Measles virus inhibition of viral CPE in BSC-1 cells. It is filed as cell-based. The conditions noted are these: for EC50: Table II footnote g, read-out: Others EC50, against measles.
The subject of another series is Raji or Daudi cells. The series is described as follows: Toxicity run with the EBV assay. It is filed as cell-based, human. The conditions noted are these: Table II. An excerpt: IC50 (50% inhibitory concentration) is the concentration required to inhibit cell proliferation by 50%
In series [1] the test system is African green monkey kidney (BSC-1) cells. Briefly: Cytotoxicity run with the measles assay.
Description: Virus strain: CC (Source: Pennsylvania State University) Cell line: African green monkey kidney (BSC-1) cells.
In another series the test system is HCMV. Briefly: HCMV semi-automated CPE-inhibition assay in human foreskin fibroblast cells. It is filed as cell-based, human cytomegalovirus.
A further series deals with 2.2.15 cells. The series is described as follows: Toxicity in 2.2.15 cells, neutral red dye uptake. It is filed as cell-based, human. As to conditions: Table II, read-out: HBV IC50. The method, then:
Cells of 2.2.15 were grown to confluence in 96-well flat-bottomed tissue culture plates and treated with compounds (in 0.2 mL culture medium/well) as described above. Four concentrations of each compound were assayed, each in triplicate cultures, in 3- to 10-fold steps. Untreated control cultures were maintained on each 96-well plate. On each 96-well plate, wells containing no cells were used to correct for light scattering.

Series [2] deals with human foreskin fibroblast cells. The series is described as follows: Cell viability in the CMV plaque reduction assay (MTC). It is filed as cell-based. The source says: Five calanolide analogues, prepared as described above, were further evaluated for their anti-HCMV activity in plaque reduction assay against various laboratory and clinical isolates (Towne, AD 169, E. Mann, Coffinan, and C9208).
Background: In a plaque reduction assay, fewer plaques than in the control indicate reduced infectivity or spread.

Another series relates to CEM-SS cells. Briefly: CEM-SS MTT assay, cytotoxicity (Table I). It is filed as cell-based, human. (Tetrazolium dyes change colour on reduction, which living cells bring about.)
Another series has as its system VZV. The series is described as follows: VZV plaque reduction assay in human foreskin fibroblast cells. It is filed as cell-based, varicella zoster virus. As to conditions: Table II. The method, boiled down: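 VZV at 20-30 plaques/well adsorbed 1 h onto HFF monolayers, then 0.5% agarose overlay holding drug at final 100 down to 0.03 μg/mL (1:5 steps), duplicates. Incubation 10 days, extra MEM/agarose overlay on days 3 and 6; neutral red staining, plaques counted.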

Series [3] relates to human foreskin fibroblast cells. The series is described as follows: Toxicity run with the HCMV assay, human foreskin fibroblast cells. It is filed as cell-based. As to conditions: Table II. An outline of the steps: (§1)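 Human foreskin fibroblasts exposed to drug at 37 °C in CO2, either 72 h followed by Coulter Counter counts (triplicate counts, three replicate wells), or seven days followed by dye staining for 1 h and optical density at 550 nm.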

Series [4] has the same test system. Briefly: Toxicity run with the VZV assay, human foreskin fibroblast cells. As to conditions: Table II. It is filed as cell-based. An outline of the steps: as §1
The test system of another series is EBV. The series is described as follows: EBV assay: superinfection of Raji or Daudi cells with P3HR-1, immunofluorescence for EA and VCA. It is filed as cell-based, Epstein-Barr virus. An outline of the steps: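 Raji cells (Burkitt's lymphoma, 60 EBV genomes/cell) or Daudi cells were superinfected with P3HR-1 EBV, and drugs were added after 45 min adsorption at 37 °C and washing. After 48 h, smears were stained with monoclonal antibodies to EA components and VCA plus fluorescein anti-mouse Ig. Fluorescence-positive cells were counted to give total EA- or VCA-positive cells per culture.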

For `CCCc1cc(=O)oc2c3c(c4c(c12)OC(C)(C)C=C4)O[C@H](C)[C@@H](C)C3=O` [(+)-7, 10(R),11(R)-trans-Dihydro6,6,10,11-tetramethyl-4-propyl-2H,6H,12H-benzo [1,2-b:3,4-b′:5,6-b″]tripyran-2,12-dione], the half-maximal effective concentration (EC50) (commonly the concentration needed to bring the measured effect to its halfway point) worked out at 3 µM in the series with measles (Measles morbillivirus, BSC-1); 0.11 µg/mL (≈ 0.299 µM) in the series on HCMV (Human betaherpesvirus 5, Fibroblast, Table II); 55.9 µg/mL (≈ 152 µM) in the series on VZV (Human alphaherpesvirus 3, Fibroblast); 0.94 µg/mL (≈ 2.55 µM) in the series on EBV (human gammaherpesvirus 4, Table II). The potency against measles result in the series on measles (text summary of Table II) is “potent”. For the same compound, the IC50 (in general, the point on the concentration scale where inhibition reaches its midpoint) is more than 50 µg/mL in the series with Raji or Daudi cells (Homo sapiens); 10 µM in [1] (Chlorocebus sabaeus, BSC-1, read-out: Others IC50, against measles); 57 µM in the series with 2.2.15 cells (Homo sapiens); 72.8 µM in the series with CEM-SS cells (Homo sapiens); 47.9 µg/mL (≈ 130 µM) in series [3] (Homo sapiens, Fibroblast); more than 100 µg/mL in series [4] (Homo sapiens, Fibroblast). For the same compound, the “potency against HCMV” value with HCMV (text summary of Table II) was “very potent”. Also, the “MTC (minimum drug concentration that reduced cell viability by 25%)” value in series [2] (isolate AD169) was 100 µM; in series [2] (isolate C9208) it was more than 100 µM; in [2] (isolate Coffman), more than 100 µM; in series [2] (isolate E. Mann) it was 100 µM; in series [2] (isolate Towne), more than 100 µM. Besides, in the series on EBV (text summary of Table II), the “potency against EBV” value was “very potent”.
Regarding `CCCc1cc(=O)oc2c3c(c4c(c12)OC(C)(C)C=C4)OC(C)C(C)C3=O` (racemic) [(±)-7a], in the series with measles, the concentration for a half-maximal effect (EC50) was 13.7 µM. Moreover, the “EBV IC50” value with Raji or Daudi cells was more than 50 µg/mL. Besides, the IC50 in [1] (read-out: Others IC50, against measles, Table II footnote g) was found to be 333 µM; in the series on 2.2.15 cells it was 32 µM; in the series on CEM-SS cells it was 12 µM. Moreover, in the series on HCMV (Table II), the “HCMV EC50” value came to 0.15 µg/mL. Further, in [2], the “MTC (minimum drug concentration that reduced cell viability by 25%)” value was found to be 10 µM. Moreover, the “VZV EC50” value in the series on VZV was found to be 13.7 µg/mL. In addition, in series [3], the “HCMV IC50” value worked out at 19.8 µg/mL. In addition, the “VZV IC50” value in series [4] came out at 33.3 µg/mL. Also, the “EBV EC50” value in the series on EBV (Table II) is more than 50 µg/mL.
